Measured values taken from PubChem BioAssay AID720512 (Broad Institute, 2013).
Activity calls are given as the source filed them. The rule behind the calls is not given here.

Target: Toxin B (TcdB) glycohydrolase, Clostridioides difficile 630
Experiment: TcdB glycohydrolase inhibitors, dose response, biochemical, cherry-pick, plate reader (AID 720512)
Settings: recombinant TcdB glycohydrolase activity; for activity change, negative = inhibition: at 19.5 µM (top of the series)

Compound	activity change, negative = inhibition	AC50
O=C(Cn1cc(COc2ccc(Cl)c(Cl)c2)nn1)NS(=O)(=O)c1ccccc1OC(F)(F)F	inactive	
O=c1[nH][nH]c(=O)c2c1[nH]c(=S)n2Cc1ccccc1	inactive	
O=C(COc1ccc2ccc(=O)oc2c1)NCCN1CCOCC1	inactive	
COc1ccccc1C1=NNC(=NCc2ccccc2)SC1	inactive	
CC1(C)Cc2c(sc3ncn4c(=S)[nH]nc4c23)CO1		> 39 µM (inactive)
CNC(=O)N(O)C1N(/N=C/c2cccs2)C(=S)SC1(C)C (centres undefined)	inactive	
O=[N+]([O-])c1cc(Br)ccc1NS(=O)(=O)c1ccccc1	inactive	
CCCCn1c(-c2ccccc2C)nc2cc3[nH]c(=O)c(C(C)C)nc3cc21	inactive	
C/C(=N\Nc1ccc([N+](=O)[O-])cc1)c1cccc(N)c1	inactive	
COc1cc(/C=N/NC(=O)CSc2ccccn2)ccc1O	inactive	
COc1ccc(C(=O)Nc2ccc3c(c2)C(=O)N(C)[C@@H]2CC[C@H](CC(=O)NCC4CC4)O[C@H]2CO3)cc1	inactive	
COc1ccc(C2=NS(=O)(=O)N(C)C(C(=O)N(C)Cc3ccccc3)=C2)cc1	inactive	
O=C1/C(=C/c2cccnc2)SC(=NCc2ccccc2)N1Cc1ccccc1	inactive	
O=C(NCc1ccccc1)C1Cc2c(-c3cccc(F)c3)ccnc2O1 (centres undefined)	inactive	
CN1/C(=C/C=C/c2n(C)c3cc([N+](=O)[O-])c([N+](=O)[O-])cc3[n+]2C)C(C)(C)c2ccccc21		> 39 µM (inactive)
O=C(N/N=C/c1ccc(O)cc1)NC12CC3CC(CC(C3)C1)C2	inactive	
O=C(CC(c1ccccc1)c1ccccc1)Nc1ccc(O)cc1	inactive	
CS(=O)(=O)Nc1cccc(C2=NN(C(=O)c3ccccc3)C(c3cccs3)C2)c1 (centres undefined)	inactive	
CCNC(=O)C[C@H]1CC[C@@H]2[C@@H](COc3ccc(NC(=O)c4cccc(OC)c4)cc3C(=O)N2C)O1		> 39 µM (inactive)
CC(=O)Nc1cccc(NC(=O)c2ccc(Br)cc2)c1	inactive	
COC(=O)c1ccc(OC(=O)c2ccc(OC)cc2)c(OC)c1	inactive	
C=CC[C@@H](CC(=O)N(CCO)Cc1ccccc1)C(=O)NC[C@@H](OC(=O)[C@@H](CC=C)CC(=O)OC(C)(C)C)c1ccccc1	inactive	
CC[C@H](C)[C@@H]1NC(=O)c2cc([N+](=O)[O-])cc(I)c2NCC[C@@H](C(N)=O)NC(=O)[C@H](CCCN=C(N)N)NC1=O	inactive	
Oc1ccccc1-c1cnc2cccnn12	inactive	
Cc1nc2ccccn2c1-c1ccnn1S(=O)(=O)c1ccc(F)cc1	inactive	

Compound	activity change, negative = inhibition	AC50
CCc1ccc(NC(=O)C2=CC(c3ccc(OC)cc3)=NS(=O)(=O)N2C)cc1	inactive	
O=C1Nc2ccccc2C1c1ncc(C(F)(F)F)cc1Cl (centres undefined)	inactive	
O=C(COc1ccccc1)Nc1ccc(S(=O)(=O)Nc2ncccn2)cc1	inactive	
C[C@H](CO)N1C[C@H](C)[C@@H](CN(C)C(=O)Nc2ccc(C(F)(F)F)cc2)Oc2c(NS(=O)(=O)c3cn(C)cn3)cccc2C1=O	inactive	
CCOC(=O)c1ccc(NC(=O)Oc2cc(C)c(Cl)cc2C(C)C)cc1	inactive	
Cc1ccc(S(=O)(=O)Oc2ccccc2/C=C2\SC(=O)NC2=O)cc1	inactive	
Nc1ccc2c(c1)[nH]c(=O)c1cc(N)ccc12	inactive	
Cc1ccc(CN2C(=O)CN=C(c3ccccc3)c3ccccc32)cc1	inactive	
O=C(COc1ncnc2ccccc12)NCCc1ccc(F)cc1	inactive	
COc1cc(/C=C2\SC(=S)N(NC(=O)c3cccc(O)c3)C2=O)ccc1O	inactive	
CN(C)CCNC(=O)c1cc2c(s1)-c1ccc(Cl)cc1SC2		> 39 µM (inactive)
Cc1cccc(/C=C/c2onc(C)c2S(=O)(=O)N2CCC(C(=O)NC(C)C)CC2)c1	inactive	
O=S(=O)(NC1CCCCCCC1)c1ccc(F)cc1	inactive	
CC1CCN(CCCn2c(=S)[nH]c3c(sc4ccccc43)c2=O)CC1	inactive	
COc1ccc(NS(=O)(=O)c2cc(N=Nc3c(O)[nH]c(=O)[nH]c3=O)ccc2Cl)cc1	inactive	
Nc1c(Cl)ncnc1NCCc1ccc(O)cc1	inactive	
CN(C)CCNc1ccc(CO)c2sc3ccc(O)cc3c(=O)c12	inactive	
CCOc1ccccc1/C=C/c1onc(C)c1S(=O)(=O)N1CCC(C(=O)N(CC)CC)CC1	inactive	
C[C@H]1CN([C@@H](C)CO)S(=O)(=O)c2ccc(-c3ccncc3)cc2O[C@H]1CN(C)Cc1ccc(Oc2ccccc2)cc1	inactive	
CCOc1ccccc1-n1c(=S)sc2c(=O)n(-c3ccc(F)cc3)c(SCC(=O)O)nc21		> 39 µM (inactive)
O=C(c1ccccc1)c1coc2ccc(O)c(Cl)c12		> 39 µM (inactive)
FC(F)(F)c1cc(Cl)c2nc(-c3ccccc3)c(Cc3ccsc3)n2c1	inactive	
Cc1nc(S(=O)(=O)N(C)Cc2ccccc2)c(C#N)c(C)c1Cl	inactive	
CCCC(=O)Nc1sc2c(c1C(=O)Nc1ccccn1)CCCC2	inactive	
